# Patent publication US8703811B2, “Small molecule inhibitors of Plasmodium falciparum dihydroorotate dehydrogenase” (Genzyme Corporation, priority 2008, dated 2014)
# Legend:
# Cytochrome P450 1A2 = Cytochrome P450 1A2 (Homo sapiens (Human), UniProt P05177); assay type: in vitro ADME
# From the text: (§1) Rapid screening for cytochrome P450 inhibitors is part of the current paradigm for avoiding development of drugs likely to give clinical pharmacokinetic drug-drug interactions and associated toxicities. There are commercially available assays for such screenings. For example, BD Biosciences (http://www.bdbiosciences.com/index.shtml) provides a technical bulletin describing a detailed, step-by-step procedure for the performance of the high throughput cytochrome P450 inhibition testing method.
# [1] = system: Normal Human Dermal Fibroblasts; experiment: Normal Human Dermal Fibroblast Toxicity Screen; assay type: cell-based
# Method in brief: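 Fibroblasts seeded at 0.25 to 0.3×10^5 cells/mL, allowed 24 h at 37° C./5% CO2, then exposed to compounds for 96 hours. Viability read as Alamar Blue fluorescence after 3 h, with a T=0 plate, Tween 20 as positive control and DMSO as negative control.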
# Cytochrome P450 2D6 = Cytochrome P450 2D6 (Homo sapiens (Human), UniProt P10635); experiment: Cytochrome P450 inhibition, 2D6; assay type: in vitro ADME
# Cytochrome P450 2D6, sequence (P10635 whole entry): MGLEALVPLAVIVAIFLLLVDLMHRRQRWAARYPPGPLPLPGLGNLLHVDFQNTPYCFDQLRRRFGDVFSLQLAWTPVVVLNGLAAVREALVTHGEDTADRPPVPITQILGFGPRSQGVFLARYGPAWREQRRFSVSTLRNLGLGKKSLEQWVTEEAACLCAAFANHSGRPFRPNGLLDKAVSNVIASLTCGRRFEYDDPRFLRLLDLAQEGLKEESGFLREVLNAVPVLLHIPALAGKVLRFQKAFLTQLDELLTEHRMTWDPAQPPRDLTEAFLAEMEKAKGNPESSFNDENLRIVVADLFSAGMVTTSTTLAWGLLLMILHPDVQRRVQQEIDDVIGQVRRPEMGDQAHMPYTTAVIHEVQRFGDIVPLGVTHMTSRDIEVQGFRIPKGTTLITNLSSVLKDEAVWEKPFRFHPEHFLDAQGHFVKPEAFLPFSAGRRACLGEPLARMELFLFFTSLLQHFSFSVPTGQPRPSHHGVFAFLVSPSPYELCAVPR
# From the text: as §1
# Hepatic clearance, rat = assay type: in vitro ADME
# From the text: Clearance of drug by the liver will depend on the rate of delivery of drug to the liver (the hepatic blood flow) and on the efficiency of removal of drug which is presented to it (the extraction ratio). The hepatic clearance of compounds can be determined by standard methods known in the art. Such methods are described in, for example, Naritomi, Y; Terashita, S; Kagayama, A; Sugiyama, Y. “Utility of Hepatocytes in Predicting Drug Metabolism: Comparison of Hepatic Intrinsic Clearance in Rats and Humans in Vivo and in Vitro.” 2003, 31 (5): pages 580-588.
# P. falciparum HB3 = experiment: Inhibition of in vitro P. falciparum culture, [3H]-hypoxanthine uptake, HB3; assay type: cell-based; settings: Plasmodium falciparum, HB3, Erythrocyte; [3H]-hypoxanthine uptake by parasite infected erythrocytes; read-out: HB3 IC50
# Experimental: (§2) P. falciparum strains D10, 3D7, HB3, and Dd2 were obtained from the Malaria Research and Reference Reagent Resource Center (Manassas, Va.). The parasite strains were maintained in vitro by method of Trager and Jensen. The inhibition of P. falciparum growth in the presence of drug was assessed by the relative reduction of [^3H]-hypoxanthine uptake as previously described. Inhibition data were fitted to Equation 1 using non-linear regression analysis except that the relative velocity of parasite growth was substituted for the rate of product formation.
# pfDHODH = pfDHODH (Plasmodium falciparum (isolate 3D7), UniProt Q08210); experiment: pfDHODH activity with FeCy as electron acceptor; settings: read-out: % Inhibition of Product Formation Rate with 50 μM Inhibitor, FeCy
# pfDHODH, sequence (Q08210 159-565 limits assumed): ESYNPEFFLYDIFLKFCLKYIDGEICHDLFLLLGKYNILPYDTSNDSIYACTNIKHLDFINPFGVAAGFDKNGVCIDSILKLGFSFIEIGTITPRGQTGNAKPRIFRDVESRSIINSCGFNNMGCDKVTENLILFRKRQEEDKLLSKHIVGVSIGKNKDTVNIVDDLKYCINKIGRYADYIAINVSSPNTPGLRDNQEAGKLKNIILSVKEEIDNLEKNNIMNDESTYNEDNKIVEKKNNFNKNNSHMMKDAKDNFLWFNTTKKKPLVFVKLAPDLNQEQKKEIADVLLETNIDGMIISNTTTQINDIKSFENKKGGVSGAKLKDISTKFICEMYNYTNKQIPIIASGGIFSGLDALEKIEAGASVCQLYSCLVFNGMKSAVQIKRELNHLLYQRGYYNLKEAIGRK
# Experimental: Inhibitors of DHODH, as classified by the chromogen reduction assay, were also evaluated for activity using FeCy as an electron acceptor. A final concentration of 5-50 nM DHODH, 200 μM L-DHO and 100 μM FeCy in Buffer C was used in this assay. Both the reduction of FeCy and the formation of orotate was monitored at 420 nm (ε420=1 mM^−1 cm^−1) and 290 nm (ε280=2 mM^−1 cm^−1), respectively, noting that two molecules of FeCy are reduced for one molecule of L-DHO. As with the previous assays, the reaction was performed at 25° C. and initiated with the addition of enzyme.
# pbDHODH = pbDHODH (Plasmodium berghei, UniProt A0A509AEH5); experiment: DCIP assay, pbDHODH; assay type: biochemical, P. berghei; settings: 200 μM L-DHO, 18 μM CoQD, 100 μM DCIP, 20 nM enzyme
# pbDHODH, sequence (A0A509AEH5 1-517): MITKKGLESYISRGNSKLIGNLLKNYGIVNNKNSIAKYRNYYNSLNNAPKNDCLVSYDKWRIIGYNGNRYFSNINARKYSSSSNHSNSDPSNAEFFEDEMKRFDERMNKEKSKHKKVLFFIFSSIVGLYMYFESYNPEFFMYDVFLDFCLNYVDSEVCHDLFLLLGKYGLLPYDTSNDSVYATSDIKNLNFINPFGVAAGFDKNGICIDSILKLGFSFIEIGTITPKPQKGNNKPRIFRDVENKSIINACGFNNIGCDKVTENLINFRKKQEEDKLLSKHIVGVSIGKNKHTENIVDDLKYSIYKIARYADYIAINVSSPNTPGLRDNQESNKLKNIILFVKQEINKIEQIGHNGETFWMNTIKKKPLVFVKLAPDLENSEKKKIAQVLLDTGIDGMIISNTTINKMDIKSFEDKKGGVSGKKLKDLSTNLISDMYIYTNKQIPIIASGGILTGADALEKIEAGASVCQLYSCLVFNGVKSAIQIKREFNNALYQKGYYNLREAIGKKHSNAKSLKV
# From the text: (§3) Type 2 DHODH activity was monitored with either the direct assay measuring the formation of orotate or via a chromogen reduction assay using DCIP. Although the extinction coefficient and absorption wavelength are preferable for the chromogen reduction assay, the inorganic electron acceptor DCIP can be utilized by DHODH as the final electron acceptor in lieu of CoQn when the endogenous substrate is at a low concentration. As such, the direct assay was used to measure the binding affinity of pfDHODH to CoQD and L-DHO. The enzymatic reaction was performed by varying the L-DHO concentration (1-400 μM) or CoQD concentration (1-200 μM) while keeping the other substrate constant and in excess. The formation of orotate was measured continuously at 296 nm (ε296=4.3 mM^−1 cm^−1). Inhibition of DHODH by small molecules was evaluated using the chromogen based assay with a final substrate concentration of 200 μM L-DHO, 18 μM CoQD, and 100 μM DCIP, unless otherwise noted. The reduction of DCIP was monitored at 600 nm (ε600=18.8 mM^−1 cm^−1).
# (§4) Substrate specificity and enzyme inhibition data was analyzed with GraphPad Prism Version 4 for Windows (GraphPad Software). Kinetic constants were calculated by non-linear regression fitting of the data to the Michaelis-Menten equation [36]. IC50 values were determined by non-linear regression fitting of the data to Equation 1: […]
# scDHODH = scDHODH (Saccharomyces cerevisiae (strain ATCC 204508 / S288c) (Baker's yeast), UniProt P28272); experiment: DCIP assay with fumarate, scDHODH; assay type: biochemical; settings: 115 μM fumarate in lieu of CoQD
# scDHODH, sequence (P28272 whole entry): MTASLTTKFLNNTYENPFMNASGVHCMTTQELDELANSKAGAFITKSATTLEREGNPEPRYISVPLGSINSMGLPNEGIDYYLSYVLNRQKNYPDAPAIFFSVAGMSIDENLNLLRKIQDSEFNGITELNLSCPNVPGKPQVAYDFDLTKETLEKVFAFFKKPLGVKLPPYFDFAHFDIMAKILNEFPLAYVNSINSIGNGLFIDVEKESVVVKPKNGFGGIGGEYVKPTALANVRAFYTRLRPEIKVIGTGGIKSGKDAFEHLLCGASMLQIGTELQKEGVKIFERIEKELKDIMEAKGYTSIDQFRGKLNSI
# P. falciparum D10 = experiment: Inhibition of in vitro P. falciparum culture, [3H]-hypoxanthine uptake, D10; assay type: cell-based; settings: Plasmodium falciparum, D10, Erythrocyte; [3H]-hypoxanthine uptake by parasite infected erythrocytes; read-out: D10 IC50
# Experimental: as §2
# [2] = system: P. falciparum D10-scDHODH; experiment: Inhibition of transgenic D10-scDHODH parasites, [3H]-hypoxanthine uptake; assay type: cell-based
# Experimental: as §2
# Transgenic parasites expressing scDHODH were generated as described by Painter et al. except that full length scDHODH was cloned directly into the pGem3Z vector without a GFP tag. The resultant plasmid was transfected into ring stages of P. falciparum D10 by electroporation and maintained in culture using standard methods under the selection of WR99210.
# pvDHODH = pvDHODH (Plasmodium vivax, UniProt A5K1N1); experiment: DCIP assay, pvDHODH; assay type: biochemical, P. vivax; settings: 200 μM L-DHO, 18 μM CoQD, 100 μM DCIP, 20 nM enzyme
# pvDHODH, sequence (A5K1N1 1-572): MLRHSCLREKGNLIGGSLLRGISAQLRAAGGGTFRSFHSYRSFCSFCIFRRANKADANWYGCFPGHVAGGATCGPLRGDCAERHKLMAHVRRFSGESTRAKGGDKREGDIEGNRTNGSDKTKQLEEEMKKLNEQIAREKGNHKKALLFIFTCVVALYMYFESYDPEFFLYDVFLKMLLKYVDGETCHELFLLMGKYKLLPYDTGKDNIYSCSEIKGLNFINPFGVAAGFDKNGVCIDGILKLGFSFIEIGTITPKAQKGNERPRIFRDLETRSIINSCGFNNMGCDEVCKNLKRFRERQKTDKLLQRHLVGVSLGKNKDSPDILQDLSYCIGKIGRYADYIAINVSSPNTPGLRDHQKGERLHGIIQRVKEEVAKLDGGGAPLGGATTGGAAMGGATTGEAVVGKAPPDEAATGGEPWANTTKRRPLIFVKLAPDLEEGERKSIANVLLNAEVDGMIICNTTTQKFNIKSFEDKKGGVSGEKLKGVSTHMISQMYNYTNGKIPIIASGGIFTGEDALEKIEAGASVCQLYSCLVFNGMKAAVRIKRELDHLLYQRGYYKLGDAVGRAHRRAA
# From the text: as §3, §4
# Cytochrome P450 1A2, sequence (P05177 whole entry): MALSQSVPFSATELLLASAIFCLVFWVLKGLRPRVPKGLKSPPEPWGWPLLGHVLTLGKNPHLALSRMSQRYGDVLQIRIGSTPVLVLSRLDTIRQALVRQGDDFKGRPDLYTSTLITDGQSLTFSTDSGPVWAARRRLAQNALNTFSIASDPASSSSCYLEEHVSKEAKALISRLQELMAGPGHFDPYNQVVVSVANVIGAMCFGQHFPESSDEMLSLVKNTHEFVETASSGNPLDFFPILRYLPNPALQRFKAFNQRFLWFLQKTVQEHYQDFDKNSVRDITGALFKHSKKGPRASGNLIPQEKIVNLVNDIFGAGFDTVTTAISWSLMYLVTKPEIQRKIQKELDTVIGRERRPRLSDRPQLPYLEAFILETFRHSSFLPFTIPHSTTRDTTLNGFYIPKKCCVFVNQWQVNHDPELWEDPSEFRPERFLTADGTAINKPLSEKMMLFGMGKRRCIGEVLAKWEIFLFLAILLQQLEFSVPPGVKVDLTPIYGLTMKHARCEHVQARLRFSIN
compound,measurement,setting,value
"CCCNC(=O)c1ccc(-n2c(C)nc3ccccc32)s1 [Compound 12, 5-(2-methyl-1H-benzo[d]imidazol-1-yl)-N-propylthiophene-2-carboxamide]","Cytochrome P450 Inhibition, 1A2",Cytochrome P450 1A2,>5.0 in 1A2 μM
same,cytotoxicity in dermal fibroblasts,[1],No adverse cytotoxicity
same,"Cytochrome P450 Inhibition, 2D6",Cytochrome P450 2D6,>5.0 in 2D6 μM
same,microsomal CLint,"Hepatic clearance, rat",102 µL/min/mg
"CCCNC(=O)c1ccc(-n2cnc3ccccc32)s1 [Compound 11, 5-(1H-benzo[d]imidazol-1-yl)-N-propylthiophene-2-carboxamide]","Cytochrome P450 Inhibition, 1A2",Cytochrome P450 1A2,>5.0 in 1A2 μM
same,"Cytochrome P450 Inhibition, 2D6",Cytochrome P450 2D6,>5.0 in 2D6 μM
same,microsomal CLint,"Hepatic clearance, rat",> 119 µL/min/mg
"CCCNC(=O)c1ccc(-n2c(C)cc3ccccc32)s1 [Compound 1, 5-(2-methyl-1H-indol-1-yl)-N-propylthiophene-2-carboxamide]",IC50,P. falciparum HB3,470 nM
same,inhibition at 50 µM,pfDHODH,31%
same,IC50,pbDHODH,60 ± 7 nM
same,IC50,scDHODH,> 10000 nM
same,IC50,P. falciparum D10,610 nM
same,IC50,"[2]; Plasmodium falciparum, D10, read-out: D10-scDHODH IC50",> 10000 nM
same,efficacy against D10-scDHODH strain compared to D10 parent strain,"[2]; dose-effect curves, FIG. 5",significantly reduced
same,IC50,pvDHODH,420 ± 20 nM
5-(1H-indol-1-yl)-N-propylthiophene-2-carboxamide [Compound 7],CC50,"[1]; four days exposure, Alamar Blue, read-out: Dermal Fibroblast LC50",50000 nM
